Measured values published in patent US10758534B2 (Vertex Pharmaceuticals Incorporated, priority 2014, dated 2020).

Target: T1, F508del (Homo sapiens, UniProt P13569, DEL508-508)
T1 construct: expressed in transfected cells
Assay: Protocol 1: membrane potential optical assay (FLIPR III, voltage sensing dye), identification of potentiator compounds
Format: cell-based
Conditions: Table 3, compounds of Table 1
Procedure, shortened: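 Gating potentiation is read as a membrane-potential fluorescence change (FLIPR III, voltage-sensing dye) after one forskolin addition under a Cl− gradient, with gluconate replacing chloride, pH 7.4. Cells are F508del-expressing NIH3T3 mouse fibroblasts held 24 h at 27 °C and exposed to compound before dye loading.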

T1 sequence (P13569 with tags, fused parts or gaps DEL508-508): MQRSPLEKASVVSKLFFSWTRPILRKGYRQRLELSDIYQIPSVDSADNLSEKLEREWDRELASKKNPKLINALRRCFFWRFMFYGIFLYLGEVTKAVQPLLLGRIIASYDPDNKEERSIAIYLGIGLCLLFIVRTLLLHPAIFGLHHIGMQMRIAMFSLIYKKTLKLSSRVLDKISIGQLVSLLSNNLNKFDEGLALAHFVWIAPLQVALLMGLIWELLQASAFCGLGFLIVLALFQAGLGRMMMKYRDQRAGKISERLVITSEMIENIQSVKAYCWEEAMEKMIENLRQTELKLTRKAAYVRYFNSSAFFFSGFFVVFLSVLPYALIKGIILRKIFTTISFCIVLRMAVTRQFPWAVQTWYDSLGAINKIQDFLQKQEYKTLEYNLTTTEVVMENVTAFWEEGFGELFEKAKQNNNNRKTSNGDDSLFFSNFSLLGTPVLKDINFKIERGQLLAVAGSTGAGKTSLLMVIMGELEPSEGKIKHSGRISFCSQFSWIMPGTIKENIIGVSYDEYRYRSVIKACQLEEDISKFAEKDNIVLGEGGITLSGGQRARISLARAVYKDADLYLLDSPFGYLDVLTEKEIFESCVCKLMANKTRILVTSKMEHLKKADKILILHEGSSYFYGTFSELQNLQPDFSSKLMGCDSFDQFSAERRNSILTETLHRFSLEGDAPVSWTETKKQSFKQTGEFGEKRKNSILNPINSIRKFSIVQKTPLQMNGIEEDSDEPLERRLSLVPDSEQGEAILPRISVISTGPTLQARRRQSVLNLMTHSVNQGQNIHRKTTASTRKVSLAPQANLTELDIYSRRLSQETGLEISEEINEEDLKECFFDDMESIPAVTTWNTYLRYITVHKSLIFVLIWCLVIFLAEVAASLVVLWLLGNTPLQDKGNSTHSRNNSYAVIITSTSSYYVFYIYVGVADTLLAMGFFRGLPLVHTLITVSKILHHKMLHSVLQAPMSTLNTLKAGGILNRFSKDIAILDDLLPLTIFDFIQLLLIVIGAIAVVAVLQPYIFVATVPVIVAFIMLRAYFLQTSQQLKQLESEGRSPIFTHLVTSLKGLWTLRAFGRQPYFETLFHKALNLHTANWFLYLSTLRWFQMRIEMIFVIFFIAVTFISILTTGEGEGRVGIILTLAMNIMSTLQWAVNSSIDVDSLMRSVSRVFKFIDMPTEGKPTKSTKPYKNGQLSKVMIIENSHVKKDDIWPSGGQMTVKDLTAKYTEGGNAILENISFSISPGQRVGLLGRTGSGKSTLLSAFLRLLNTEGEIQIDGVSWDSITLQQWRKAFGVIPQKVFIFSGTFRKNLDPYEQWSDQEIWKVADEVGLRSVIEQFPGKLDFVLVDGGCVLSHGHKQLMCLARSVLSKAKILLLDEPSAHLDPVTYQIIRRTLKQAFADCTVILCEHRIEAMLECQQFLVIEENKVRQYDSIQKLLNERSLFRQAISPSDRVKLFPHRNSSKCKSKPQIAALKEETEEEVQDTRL

Structure (SMILES)	EC30
CC1CN(c2ncc(-c3cccc(C#N)c3)cc2C(=O)NS(=O)(=O)c2cccc(N)n2)C(C)(C)C1 (stereo not shown) [Compound 1849, N-[(6-amino-2-pyridyl)sulfonyl]-5-(3-cyanophenyl)-2-(2,2,4-trimethylpyrrolidin-1-yl)pyridine-3-carboxamide]	++ (“++” means between 3 uM and 10 uM)
C[C@@H]1CN(c2nc(C3CCOCC3)ccc2C(=O)NS(=O)(=O)c2cccnc2N)C(C)(C)C1 [Compound 1850, N-[(2-amino-3-pyridyl)sulfonyl]-6-tetrahydropyran-4-yl-2-[(4S)-2,2,4-trimethylpyrrolidin-1-yl]pyridine-3-carboxamide]	+++ (“+++” means <3 uM)
COc1ccc(-c2ccc(C(=O)NS(=O)(=O)c3cccnc3N)c(N3C[C@@H](C)CC3(C)C)n2)cc1F [Compound 1851, N-[(2-amino-3-pyridyl)sulfonyl]-6-(3-fluoro-4-methoxy-phenyl)-2-[(4S)-2,2,4-trimethylpyrrolidin-1-yl]pyridine-3-carboxamide]	+++ (“+++” means <3 uM)
CC(C)(C)c1ccc(C(=O)NS(=O)(=O)c2cccc(N)n2)c(N2CCC(Cc3ccccc3)C2(C)C)n1 (stereo not shown) [Compound 1852, N-[(6-amino-2-pyridyl)sulfonyl]-2-(3-benzyl-2,2-dimethyl-pyrrolidin-1-yl)-6-tert-butyl-pyridine-3-carboxamide]	+++ (“+++” means <3 uM)
COc1ccc(-c2ccc(C(=O)NS(=O)(=O)c3ccc[nH]c3=O)c(N3C[C@@H](C)CC3(C)C)n2)c(OC)n1 [Compound 1853, 6-(2,6-dimethoxy-3-pyridyl)-N-[(2-oxo-1H-pyridin-3-yl)sulfonyl]-2-[(4S)-2,2,4-trimethylpyrrolidin-1-yl]pyridine-3-carboxamide]	++ (“++” means between 3 uM and 10 uM)
C[C@@H]1CN(c2nc(-c3ccc(F)c(F)c3)ccc2C(=O)NS(=O)(=O)c2cccnc2N)C(C)(C)C1 [Compound 1854, N-[(2-amino-3-pyridyl)sulfonyl]-6-(3,4-difluorophenyl)-2-[(4S)-2,2,4-trimethylpyrrolidin-1-yl]pyridine-3-carboxamide]	+++ (“+++” means <3 uM)
CCOc1nn(-c2ccc(C(=O)NS(=O)(=O)c3ccc[nH]c3=O)c(N3C[C@@H](C)CC3(C)C)n2)cc1C [Compound 1856, 6-(3-ethoxy-4-methyl-pyrazol-1-yl)-N-[(2-oxo-1H-pyridin-3-yl)sulfonyl]-2-[(4S)-2,2,4-trimethylpyrrolidin-1-yl]pyridine-3-carboxamide]	+++ (“+++” means <3 uM)
C[C@@H]1CN(c2nc(-c3cccc4ccccc34)ccc2C(=O)NS(=O)(=O)c2cccnc2N)C(C)(C)C1 [Compound 1857, N-[(2-amino-3-pyridyl)sulfonyl]-6-(1-naphthyl)-2-[(4S)-2,2,4-trimethylpyrrolidin-1-yl]pyridine-3-carboxamide]	+++ (“+++” means <3 uM)
COc1ccc(-c2ccc(C(=O)NS(=O)(=O)c3ccc[nH]c3=O)c(N3C[C@@H](C)CC3(C)C)n2)c(F)c1 [Compound 1858, 6-(2-fluoro-4-methoxy-phenyl)-N-[(2-oxo-1H-pyridin-3-yl)sulfonyl]-2-[(4S)-2,2,4-trimethylpyrrolidin-1-yl]pyridine-3-carboxamide]	++ (“++” means between 3 uM and 10 uM)
COc1ncccc1S(=O)(=O)NC(=O)c1cc2ccc(C)cc2nc1N1C[C@@H](C)CC1(C)C [Compound 1859, N-[(2-methoxy-3-pyridyl)sulfonyl]-7-methyl-2-[(4S)-2,2,4-trimethylpyrrolidin-1-yl]quinoline-3-carboxamide]	+++ (“+++” means <3 uM)
CCOc1ccc(-c2ccc(C(=O)NS(=O)(=O)c3cccnc3N)c(N3C[C@@H](C)CC3(C)C)n2)cc1C [Compound 1860, N-[(2-amino-3-pyridyl)sulfonyl]-6-(4-ethoxy-3-methyl-phenyl)-2-[(4S)-2,2,4-trimethylpyrrolidin-1-yl]pyridine-3-carboxamide]	+++ (“+++” means <3 uM)
COc1cccc(-c2cnc(N3CC(C)CC3(C)C)c(C(=O)NS(=O)(=O)c3cccc(N)n3)c2)n1 (stereo not shown) [Compound 1861, N-[(6-amino-2-pyridyl)sulfonyl]-5-(6-methoxy-2-pyridyl)-2-(2,2,4-trimethylpyrrolidin-1-yl)pyridine-3-carboxamide]	+++ (“+++” means <3 uM)
CCc1ccnc(Nc2cccc(S(=O)(=O)NC(=O)c3cccnc3N3CC(C)CC3(C)C)n2)c1 (stereo not shown) [Compound 1862, N—[[6-[(4-ethyl-2-pyridyl)amino]-2-pyridyl]sulfonyl]-2-(2,2,4-trimethylpyrrolidin-1-yl)pyridine-3-carboxamide]	+++ (“+++” means <3 uM)
CC1CN(c2ncccc2C(=O)NS(=O)(=O)c2cccc(NCc3nccs3)n2)C(C)(C)C1 (stereo not shown) [Compound 1865, N—[[6-(thiazol-2-ylmethylamino)-2-pyridyl]sulfonyl]-2-(2,2,4-trimethylpyrrolidin-1-yl)pyridine-3-carboxamide]	++ (“++” means between 3 uM and 10 uM)
COc1ccc(-c2ccc(C(=O)NS(=O)(=O)c3cccnc3N)c(N3C[C@@H](C)CC3(C)C)n2)c(C)n1 [Compound 1866, N-[(2-amino-3-pyridyl)sulfonyl]-6-(6-methoxy-2-methyl-3-pyridyl)-2-[(4S)-2,2,4-trimethylpyrrolidin-1-yl]pyridine-3-carboxamide]	+++ (“+++” means <3 uM)
CCOc1cc(F)ccc1-c1ccc(C(=O)NS(=O)(=O)c2ccc[nH]c2=O)c(N2C[C@@H](C)CC2(C)C)n1 [Compound 1867, 6-(2-ethoxy-4-fluoro-phenyl)-N-[(2-oxo-1H-pyridin-3-yl)sulfonyl]-2-[(4S)-2,2,4-trimethylpyrrolidin-1-yl]pyridine-3-carboxamide]	+++ (“+++” means <3 uM)
C[C@@H]1CN(c2nc(C3CCCCO3)ccc2C(=O)NS(=O)(=O)c2ccccc2)C(C)(C)C1 (stereo partly drawn) [Compound 1868, N-(benzenesulfonyl)-6-tetrahydropyran-2-yl-2-[(4S)-2,2,4-trimethylpyrrolidin-1-yl]pyridine-3-carboxamide]	+++ (“+++” means <3 uM)
COc1cc(F)cc(-c2ccc(C(=O)NS(=O)(=O)c3cccnc3N)c(N3C[C@@H](C)CC3(C)C)n2)c1 [Compound 1869, N-[(2-amino-3-pyridyl)sulfonyl]-6-(3-fluoro-5-methoxy-phenyl)-2-[(4S)-2,2,4-trimethylpyrrolidin-1-yl]pyridine-3-carboxamide]	+++ (“+++” means <3 uM)
CCN(CCOC)c1cccc(S(=O)(=O)NC(=O)c2cccnc2N2CC(C)CC2(C)C)n1 (stereo not shown) [Compound 1870, N—[[6-[ethyl(2-methoxyethyl)amino]-2-pyridyl]sulfonyl]-2-(2,2,4-trimethylpyrrolidin-1-yl)pyridine-3-carboxamide]	++ (“++” means between 3 uM and 10 uM)
Cc1ccc(-c2ccc(C(=O)NS(=O)(=O)c3cccnc3N)c(N3C[C@@H](C)CC3(C)C)n2)c(C)c1 [Compound 1871, N-[(2-amino-3-pyridyl)sulfonyl]-6-(2,4-dimethylphenyl)-2-[(4S)-2,2,4-trimethylpyrrolidin-1-yl]pyridine-3-carboxamide]	+++ (“+++” means <3 uM)
CC1CN(c2ncccc2C(=O)NS(=O)(=O)c2cccc(Nc3ccccc3Cl)n2)C(C)(C)C1 (stereo not shown) [Compound 1872, N—[[6-(2-chloroanilino)-2-pyridyl]sulfonyl]-2-(2,2,4-trimethylpyrrolidin-1-yl)pyridine-3-carboxamide]	+++ (“+++” means <3 uM)
C[C@@H]1CN(c2nc(-c3cccc(F)c3)ccc2C(=O)NS(=O)(=O)c2cccnc2N)C(C)(C)C1 [Compound 1873, N-[(2-amino-3-pyridyl)sulfonyl]-6-(3-fluorophenyl)-2-[(4S)-2,2,4-trimethylpyrrolidin-1-yl]pyridine-3-carboxamide]	+++ (“+++” means <3 uM)
CC1CN(c2ncccc2C(=O)NS(=O)(=O)c2cccc(OCC3CCC=CO3)n2)C(C)(C)C1 (stereo not shown) [Compound 1874, N—[[6-(3,4-dihydro-2H-pyran-2-ylmethoxy)-2-pyridyl]sulfonyl]-2-(2,2,4-trimethylpyrrolidin-1-yl)pyridine-3-carboxamide]	+++ (“+++” means <3 uM)
CC1CN(c2ncccc2C(=O)NS(=O)(=O)c2cccc(Oc3ccc4cccnc4c3)n2)C(C)(C)C1 (stereo not shown) [Compound 1875, N—[[6-(7-quinolyloxy)-2-pyridyl]sulfonyl]-2-(2,2,4-trimethylpyrrolidin-1-yl)pyridine-3-carboxamide]	++ (“++” means between 3 uM and 10 uM)
COc1ccc(S(=O)(=O)NC(=O)c2ccc(-c3cc(F)cc(OCC(C)C)c3)nc2N2C[C@@H](C)CC2(C)C)cc1 [Compound 1876, 6-(3-fluoro-5-isobutoxy-phenyl)-N-(4-methoxyphenyl)sulfonyl-2-[(4S)-2,2,4-trimethylpyrrolidin-1-yl]pyridine-3-carboxamide]	+++ (“+++” means <3 uM)
CC(=O)N1CCc2cc(Nc3cccc(S(=O)(=O)NC(=O)c4cccnc4N4CC(C)CC4(C)C)n3)ccc21 (stereo not shown) [Compound 1877, N—[[6-[(1-acetylindolin-5-yl)amino]-2-pyridyl]sulfonyl]-2-(2,2,4-trimethylpyrrolidin-1-yl)pyridine-3-carboxamide]	++ (“++” means between 3 uM and 10 uM)
COc1cc(OC)cc(-c2ccc(C(=O)NS(=O)(=O)c3ccc[nH]c3=O)c(N3C[C@@H](C)CC3(C)C)n2)c1 [Compound 1878, 6-(3,5-dimethoxyphenyl)-N-[(2-oxo-1H-pyridin-3-yl)sulfonyl]-2-[(4S)-2,2,4-trimethylpyrrolidin-1-yl]pyridine-3-carboxamide]	++ (“++” means between 3 uM and 10 uM)
CC1CN(c2ncccc2C(=O)NS(=O)(=O)c2cccc(NCCCN(C)c3ccccc3)n2)C(C)(C)C1 (stereo not shown) [Compound 1879, N—[[6-[3-(N-methylanilino)propylamino]-2-pyridyl]sulfonyl]-2-(2,2,4-trimethylpyrrolidin-1-yl)pyridine-3-carboxamide]	+++ (“+++” means <3 uM)
